Non-standard residues stand in square brackets, D forms with d. Residues, ends and D or L forms follow the SMILES beside them. Tic = O=C(O)[C@@H]1Cc2ccccc2CN1; Orn = NCCC[C@H](N)C(=O)O; Aze = O=C(O)[C@@H]1CCN1; Aib = CC(C)(N)C(=O)O

What all share (format): cell-based
Test [1] concerns the target T1, human UTR2 receptor (Homo sapiens, UniProt Q9UKP6).
T1 construct: expressed in transfected cells; host or cells: mouse pre-B cell line 300-19
T1 sequence (Q9UKP6 1-389): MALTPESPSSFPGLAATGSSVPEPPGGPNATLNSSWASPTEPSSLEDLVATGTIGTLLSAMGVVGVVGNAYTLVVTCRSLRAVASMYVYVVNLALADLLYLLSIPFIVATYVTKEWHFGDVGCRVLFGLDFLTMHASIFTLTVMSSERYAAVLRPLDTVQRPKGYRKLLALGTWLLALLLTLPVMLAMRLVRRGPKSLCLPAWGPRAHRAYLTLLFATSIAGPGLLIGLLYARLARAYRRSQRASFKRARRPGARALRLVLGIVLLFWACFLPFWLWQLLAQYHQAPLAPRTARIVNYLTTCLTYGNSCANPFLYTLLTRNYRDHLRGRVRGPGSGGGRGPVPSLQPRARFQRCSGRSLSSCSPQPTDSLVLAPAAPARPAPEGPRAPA
The test can be described thus: Calcium mobilization assay, agonist activity at urotensin receptor. The conditions noted are these: mouse pre-B 300-19 cells transfected with human UTR2, read-out: EC50% (nM) ± SD, Urotensin receptor. The protocol:
(§1) The mouse pre-B cell line 300-19 was stably transfected with the cDNA encoding the human UTR2 receptor (GenBank Acc#NM_018949), and expression was confirmed with a positive calcium signal in response to human urotensin (Sigma Aldrich). Increases in intracellular calcium were monitored using a Flexstation 384 (Molecular Devices, Sunnyvale, Calif.). The cells were batch loaded with the Calcium 3 Assay kit (Molecular Devices) in assay buffer (Hanks Balanced salt solution, HBSS, 20 mM HEPES, pH 7.4, 0.1% BSA) for 1 h at room temperature and labeled cells were dispensed into either black 96 well or 384 well assay plates (Greiner). Calcium mobilization induced by urotensin or compounds was measured in the Flexstation 384 (excitation, […]) for 70 seconds. Agonist activity was determined by direct addition of ligand or peptides, while antagonists were identified by pre-incubation of compounds with cells prior to urotensin addition. A dose response curve (compound concentration versus % maximum response for urotensin) was determined for each active agonist and antagonist and was fitted to a four parameter logistic equation using SoftmaxPro 4.6 (Molecular Devices), from which EC50% and IC50% values were calculated.

In test [2] the target is T2, human CCR10 (Homo sapiens, UniProt P46092).
T2 construct: expressed in transfected cells; host or cells: mouse pre-B cell line 300-19
T2 sequence (P46092 1-362): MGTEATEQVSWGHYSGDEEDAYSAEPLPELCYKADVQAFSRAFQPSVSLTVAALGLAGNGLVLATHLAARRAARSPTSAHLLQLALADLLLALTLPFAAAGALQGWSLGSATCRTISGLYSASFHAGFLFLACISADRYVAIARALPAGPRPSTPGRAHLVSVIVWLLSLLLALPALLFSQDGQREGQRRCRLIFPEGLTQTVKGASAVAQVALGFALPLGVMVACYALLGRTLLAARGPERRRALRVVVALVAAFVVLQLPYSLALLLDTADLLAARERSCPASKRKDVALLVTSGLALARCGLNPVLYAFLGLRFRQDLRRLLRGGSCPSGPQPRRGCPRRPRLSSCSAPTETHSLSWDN
Put plainly: Calcium flux antagonism assay with human CCL27. Particulars: 300-19 cells with human CCR10, human CCL27, read-out: IC50% (μM), CCR10 receptor. The protocol: as §1
Peptides for CCR10 (Marchese et. al. 1994, Homey et. al.) and CXCR3 (Loetscher et. al. 1998, Marchese et. al. 1995) antagonism were assayed in a mouse pre-B cell line 300-19 stably transfected with either human CCR10 or CXCR3 (Marchese et. al. 1995). Antagonism at each receptor was measured with a calcium flux assay in these cells as described above for UTR2 assays using human CCL27 and human CXCL10 (Cole et. al.) for CCR10 and CXCR3 respectively.
Selectivity was measured using the calcium flux assay on a panel of human chemokine receptor bearing cell lines (CCR1, CCR2, CCR3, CCR4, CCR5, CCR6, CCR7, CCR8, CCR9, CCR10, CXCR1, CXCR2, CXCR2, CXCR4, CXCR6 and CXCCR1) using the same method as above
In general terms: Calcium flux is commonly read through the fluorescence of an indicator in the cells.

The target in test [3] is T1, human UTR2 receptor. The test can be described thus: Calcium mobilization assay, antagonist activity at urotensin receptor. The conditions noted are these: pre-incubation before urotensin, 300-19 cells with human UTR2, read-out: IC50% (μM) ± SD, Urotensin receptor. The protocol:
as §1

For the compound `COc1ccc2c3c1CNC(=O)[C@H](Cc1ccc(O)cc1)NC(=O)[C@H](CCCCN)NC(=O)[C@H](Cc1c[nH]c4ccccc14)NC(=O)[C@H](Cc1ccccc1)NC(=O)Cc1c(OC)ccc(c1O3)C2(C)C` [Example 8], the EC50 (in general, the concentration needed to bring the measured effect to its halfway point) in test [1] is 18 ± 3 nM.
As for `CC(C)[C@H]1NC(=O)[C@H](Cc2c[nH]c3ccccc23)NC(=O)[C@@H]2Cc3ccccc3CN2C(=O)[C@H]2CCCN2C(=O)[C@H](CCCN)NC(=O)[C@H](Cc2c[nH]c3ccccc23)NC1=O` [Example 17] (cyclo(W[dV]W[Orn][dP][Tic])), in test [2], the concentration for half-maximal inhibition (IC50) – broadly, the point on the concentration scale where inhibition reaches its midpoint – stood at 0.31 µM.
In the case of `NCCCC[C@@H]1NC(=O)[C@H](Cc2c[nH]c3ccccc23)NC(=O)[C@H](CCC(N)=O)NC(=O)[C@@H]2CCN2C(=O)[C@H]2CCCN2C(=O)[C@H](Cc2ccc(O)cc2)NC1=O` [Example 6] (cyclo(QWKY[dP][Aze])), in test [1], the EC50 is 134 ± 61 nM.
Same read-out and setting: then `NCCCC[C@@H]1NC(=O)[C@H](Cc2c[nH]c3ccccc23)NC(=O)[C@H](Cc2ccccc2)NC(=O)[C@@H]2CCN2C(=O)[C@H]2CCCN2C(=O)[C@H](Cc2ccc(O)cc2)NC1=O` [Example 4] (cyclo(FWKY[dP][Aze])), with 20 ± 5 nM; and `NCCCC[C@@H]1NC(=O)[C@H](Cc2c[nH]c3ccccc23)NC(=O)[C@H](CCC(N)=O)NC(=O)[C@@H]2Cc3ccccc3CN2C(=O)[C@H]2CCCN2C(=O)[C@H](Cc2ccc(O)cc2)NC1=O` [Example 3] (cyclo(QWKY[dP][Tic])), with 82 ± 13 nM.
As to `CC[C@H](C)[C@@H]1NC(=O)[C@@H]2CCN2C(=O)[C@H]2CCCN2C(=O)[C@H](Cc2ccc(O)cc2)NC(=O)[C@H](CCCCN)NC(=O)[C@H](Cc2c[nH]c3ccccc23)NC1=O` [Example 5] (cyclo(IWKY[dP][Aze])), the EC50 in test [1] worked out at 45 ± 22 nM.
Turning to `COc1ccc2c3c1CNC(=O)[C@H](Cc1ccc(O)cc1)NC(=O)[C@H](CCCCN)NC(=O)[C@H](Cc1c[nH]c4ccccc14)NC(=O)[C@H]([C@@H](C)O)NC(=O)Cc1c(OC)ccc(c1O3)C2(C)C` [Example 9], the EC50 in test [1] is 160 ± 81 nM.
The same measure, in the same setting: then `COc1ccc2c3c1CNC(=O)[C@H](Cc1c[nH]cn1)NC(=O)[C@H](Cc1ccc(O)cc1)NC(=O)[C@H](CCCCN)NC(=O)[C@H](Cc1c[nH]c4ccccc14)NC(=O)Cc1c(OC)ccc(c1O3)C2(C)C` [Example 12], with 218 nM; and `CC[C@H](C)[C@@H]1NC(=O)Cc2c(OC)ccc3c2Oc2c(ccc(OC)c2CNC(=O)[C@H](Cc2ccc(O)cc2)NC(=O)[C@H](CCCCN)NC(=O)[C@H](Cc2c[nH]c4ccccc24)NC1=O)C3(C)C` [Example 11], with 192 ± 14 nM.
With `COc1ccc2c3c1CNC(=O)[C@H](Cc1ccc(O)cc1)NC(=O)[C@H](CCCCN)NC(=O)[C@H](Cc1c[nH]c4ccccc14)NC(=O)[C@H](CCC(N)=O)NC(=O)Cc1c(OC)ccc(c1O3)C2(C)C` [Example 10], the EC50 in test [1] was 170 ± 40 nM.
Take `CC[C@H](C)[C@@H]1NC(=O)[C@@H]2Cc3ccccc3CN2C(=O)[C@H]2CCCN2C(=O)[C@H]([C@@H](C)CC)NC(=O)C(C)(C)NC(=O)[C@@H](CCCNC(=N)N)NC1=O` [Example 19] (cyclo(I[dR][Aib]I[dP][Tic])): the IC50 in test [3] is 6.2 ± 1.5 µM.
Consider `COc1ccc2c3c1CNC(=O)[C@H](Cc1ccc(O)cc1)NC(=O)[C@H](CCCCN)NC(=O)[C@H](Cc1c[nH]c4ccccc14)NC(=O)[C@H](CCC(=O)O)NC(=O)Cc1c(OC)ccc(c1O3)C2(C)C` [Example 13], for which the EC50 in test [1] turned out to be 274 ± 5 nM.
For the compound `CC[C@H](C)[C@@H]1NC(=O)C[C@@H]2NC(=O)[C@@H]3C[C@@H](CN3C2=O)NC(=O)[C@H](Cc2ccc(O)cc2)NC(=O)[C@H](CCCCN)NC(=O)[C@H](Cc2c[nH]c3ccccc23)NC1=O` [Example 14], in test [1], the EC50 came out at 189 ± 13 nM.
The same measure, in the same setting: the same measure for `C[C@@H](O)[C@@H]1NC(=O)[C@@H]2CCN2C(=O)[C@H]2CCCN2C(=O)[C@H](Cc2ccc(O)cc2)NC(=O)[C@H](CCCCN)NC(=O)[C@H](Cc2c[nH]c3ccccc23)NC1=O` [Example 7] (cyclo(TWKY[dP][Aze])): 286 ± 66 nM; for `CC[C@H](C)[C@@H]1NC(=O)[C@@H]2Cc3ccccc3CN2C(=O)[C@H]2CCCN2C(=O)[C@H](Cc2ccc(O)cc2)NC(=O)[C@H](CCCCN)NC(=O)[C@H](Cc2c[nH]c3ccccc23)NC1=O` [Example 2] (cyclo(IWKY[dP][Tic])): 68 ± 32 nM; for `NCCCC[C@@H]1NC(=O)[C@H](Cc2c[nH]c3ccccc23)NC(=O)[C@H](Cc2ccccc2)NC(=O)[C@@H]2Cc3ccccc3CN2C(=O)[C@H]2CCCN2C(=O)[C@H](Cc2ccc(O)cc2)NC1=O` [Example 1] (cyclo(FWKY[dP][Tic])): 54 ± 12 nM.
Turning to `CC(C)[C@H]1NC(=O)[C@H](Cc2c[nH]c3ccccc23)NC(=O)[C@@H]2Cc3ccccc3CN2C(=O)[C@H]2CCCN2C(=O)[C@H](CCCCN)NC(=O)[C@H](Cc2c[nH]c3ccccc23)NC1=O` [Example 18] (cyclo(W[dV]WK[dP][Tic])), the IC50 in test [2] is 0.29 µM.

(Values after patent US10000535B2, “Template-fixed peptidomimetics” (POLYPHOR LTD., priority 2007, dated 2018).)
